Earlier results on 20 molecules are cited in patent US20200392379A1, “TRANSFER FILM, METHOD FOR MANUFACTURING LAMINATE, LAMINATE, CAPACITIVE INPUT DEVICE, AND IMAGE DISPLAY DEVICE” (FUJIFILM Corporation, priority 2018, published 2020).

Structures are written as SMILES.

For `Sc1nncs1` [2-Mercapto-1,3,4-thiadiazole], the “pKa of conjugate acid” value is −1.09.
In the case of `Sc1nnnn1-c1ccccc1` [5-Mercapto-1-phenyl-1H-tetrazole], the “pKa of conjugate acid” value is −4.56.
For the molecule `CSc1nc(N)n[nH]1` [3-Amino-5-methylthio-1H-1,2,4-triazole], the “pKa of conjugate acid” value was 2.99.
Regarding `Cc1cc(Cn2nnc3ccccc32)c(O)c(Cn2nnc3ccccc32)c1` [2,6-Bis[(1H-benzotriazol-1-yl)methyl]-4-methylphenol], the “pKa of conjugate acid” value is on record as 1.49.
As for `Cn1nnnc1S` [1-Methyl-5-mercaptotetrazole], the “pKa of conjugate acid” value is given as −2.98.
Turning to `CCCCC(CC)CN(CC(CC)CCCC)Cn1nnc2ccccc21` (centres unmarked) [1-[N,N-bis(2-ethylhexyl)aminomethyl]benzotriazole], the “pKa of conjugate acid” value is reported as 6.68.
Turning to `c1ccc2[nH]cnc2c1` [Benzimidazole], the “pKa of conjugate acid” value is 5.67.
Turning to `Cc1ncc[nH]1` [2-Methylimidazole], the “pKa of conjugate acid” value is on record as 8.15.
For the molecule `CSc1nnc(N)s1` [2-Amino-5-methylthio-1,3,4-thiadiazole], the “pKa of conjugate acid” value is given as 2.12.
For the molecule `c1ccc(-c2nnn[nH]2)cc1` [5-Phenyl-1H-tetrazole], the “pKa of conjugate acid” value is reported as −2.88.
Take `Sc1nc2ccccc2[nH]1` [2-Mercaptobenzimidazole]: the “pKa of conjugate acid” value is 2.38.
For `Sc1nc[nH]n1` [3-Mercapto-1,2,4-triazole], the “pKa of conjugate acid” value is 1.30.
For `CSc1nnc(S)s1` [2-Mercapto-5-methylthio-1,3,4-thiadiazole], the “pKa of conjugate acid” value was −1.32.
For `O=C(O)CC(Cn1nnc2ccccc21)C(=O)O` (centres unmarked) [1-(2,3-Dicarboxypropyl)benzotriazole], the “pKa of conjugate acid” value is 1.21.
As to `Nc1cnns1` [5-Amino-1,2,3-thiadiazole], the “pKa of conjugate acid” value is 0.34.
Regarding `Nc1ccc2[nH]c(S)nc2c1` [5-Amino-2-mercaptobenzimidazole], the “pKa of conjugate acid” value is given as 3.02.
As for `Sc1nnc(S)s1` [1,3,4-Thiadiazole-2,5-dithiol], the “pKa of conjugate acid” value is −2.11.
For `O=C(O)CC(C(=O)O)n1nnc2ccccc21` (centres unmarked) [1-(1′,2′-Dicarboxyethyl)benzotriazole], the “pKa of conjugate acid” value is 0.09.
Regarding `Nc1nnn[nH]1` [5-Amino-1H-tetrazole], the “pKa of conjugate acid” value is 1.29.
For the molecule `c1ccc2[nH]nnc2c1` [1,2,3-Benzotriazole], the “pKa of conjugate acid” value was 1.17.
